According to paper PMC5979539 (International Journal of Molecular Sciences, 2018):

Key:
PDC-109 = biological target: T1, PDC-109 (Bos taurus, UniProt P02784); experiment: SPR binding profile and kinetics of PDC-109 on immobilized neo-glycoprobes; design: species or system bovine; settings: for derived association (KA) constant / kd / ka: immobilized glycoprobe, PDC-109 6.25 to 100 μM, HBS-P pH 7.4, 25 °C, 1:1 Langmuir model; for kd / ka: 3 to 6 repeat experiments; for ka: 30 μL/min, CV exceeding 50% in particular cases; for binding to PDC-109 in words: immobilized probe, PDC-109 flown over
T1 construct: PDC-109, purified from bull seminal plasma, was kindly donated by J.J. Calvete; tissue gift of J.J. Calvete; host or cells: bull seminal plasma
T1 sequence (P02784 26-134): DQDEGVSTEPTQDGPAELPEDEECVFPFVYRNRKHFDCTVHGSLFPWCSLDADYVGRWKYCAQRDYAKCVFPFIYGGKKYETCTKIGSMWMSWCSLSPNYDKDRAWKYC
Excerpt: While the lipid selectivity and kinetics of PDC-109 has been characterized in considerable detail, its interaction with carbohydrate epitopes remains largely uncharted, despite its potential role in sperm reservoir formation in the female genital tract. We have therefore performed SPR experiments with PDC-109 and the most relevant mammalian glycotopes, particularly those containing Fuc epitopes. Once SPR sensor chips were functionalized with the different synthetic glycoprobes and evaluated with specific lectins (Section 2.1.2) they were used to characterize both qualitatively and quantitatively the interaction of PDC-109. For kinetic analysis, several concentrations in the 6.25 to 100 μM range were analyzed and a 1:1 Langmuir binding model was chosen for sensorgram fitting.
Data dispersion was attributable to the unusual sensorgrams observed, reflecting a complex binding event, particularly in the association phase of PDC-109. […] In a conventional, straightforward binding event, the response—i.e., the signal rise over time, reflecting protein binding to the sensor surface—reaches a constant value once equilibrium is established, and remains so until the protein solution passed over the sensor chip is replaced with buffer, giving way to the spontaneous dissociation process and subsequent surface regeneration.
Binding experiments were performed at 25 °C and 30 μL/min flow rate. […] Sensor surface was regenerated with a 60 μL-injection of specific carbohydrate (10 mM lac, 500 mM αMe-Man, 0.5 M αMe-Fuc, and 10 mM Sia) followed by a 60 μL-injection of NaCl 1 M.

Con A = Con A (Canavalia ensiformis, UniProt P02866); settings: for ka1: SPR BIAcore 3000, glycoprobe immobilized on CM5 chip, HBS-P pH 7.4 + CaCl2 5 mM, MnCl2 1 mM; for ka1 / kd1 / ka2 / kd2: Con A 2.5-80 nM, bivalent model; for ka1 / kd1: first binding event; for KA1 / kd1 / ka2 / kd2: SPR; for KA1: affinity constant of first event, KA1 = ka1/kd1; for kd1 / ka2 / kd2: immobilized glycoprobe; for ka2 / kd2: second binding event
Procedure: Subsequently, glycoprobes displaying mannobioses only differing in their glycosidic linkage (Man-α1,2-Man, Man-α1,3-Man and Man-α1,6-Man) were immobilized on a sensor chip and their interaction with concanavalin A (Con A) was studied. Con A is a relatively complex lectin, organized as a β-barrel-like tetramer at pH > 7, each dimer subunit (D2 symmetry) with two CRDs situated on opposing faces of the protein. Sensorgrams of different Con A concentrations were recorded and kinetic constants determined by simultaneously fitting the experimental curves to a bivalent kinetic model (Figure 1). This model allows the first and second binding events to be separately described by two sets of rate constants (Table 2).
All SPR experiments were performed in a BIAcore 3000 instrument (GE Healthcare, Uppsala, Sweden) using carboxymethyl-functionalized CM5 or C1 sensor chips and HBS-P (0.01 M HEPES pH 7.4; 0.15 M NaCl; 0.005% v/v surfactant P20) as running buffer, supplemented when necessary with CaCl2 (5 mM) and MnCl2 (1 mM) or other competitive reagents/adjuvants such as bovine serum albumin (BSA), carboxymethyldextran (CMD) or polivinylpirrolidone (PVP). SPR sensorgram analysis and curve fitting were done with the BIAevaluation 4.1.1 sofware package (GE Healthcare, Uppsala, Sweden). In all experiments, specific binding responses were obtained by subtracting from each channel the reference channel response. Moreover, in most cases a double referencing was applied (i.e., reference Fc1 channel plus an internal reference standard, namely buffer injection subtraction).
For all immobilizations, the carboxyl functionalities of the CM5 (or C1) sensor chip surfaces were activated by injecting a mixture of 0.05 M NHS and 0.2 M EDC (1:1 v/v; 50 µL) at 5 µL/min. Then, glycopeptide solutions were passed at 1–2 mg/mL in 10 mM NaOAc for approximately 12 min over the activated surface. For immobilization, pH 4 or pH 6 conditions were used, as required. In the specific case of PDC-109, protein solution was passed at 0.05 µg/µL in 10 mM NaOAc pH 4 over the activated surface. Afterwards, unreacted groups on all chip surfaces were blocked with ethanolamine-HCl (1 M; pH 8.5; 60 µL) or H2O (60 µL). The difference, in resonance units (RU), between readings after surface activation and final response was converted into amount of immobilized glycopeptide (0.981 RU~1 pg/mm^2 for glycopeptides, 1 RU = 1 pg/mm^2 for proteins; see legend Table 6).
All kinetic measurements were carried out by running a manually programmed sequence of binding experiments using several protein range concentrations and two flow rates. Regeneration of the sensor surface was accomplished in a specific-manner by injecting the complementary carbohydrate (10 mM lac, 100–500 mM αMe-Man, 0.5 M αMe-Fuc or L-Fuc, 0.5 M GlcNAc, 0.5 M Glc, and 10 mM Sia). Alternatively, other procedures such as glycoprotein solutions (e.g., fetuin at 2–5 g/L), low pH-buffers (e.g., 10 mM glycine pH 1.5–2.5), high salt (e.g., 1 M NaCl), high pH or specific chemicals were also used to break the interaction.
For the evaluation of the sensor chips, binding experiments and kinetic studies were carried out with the various glycoprobes and specific well-characterized lectins (ECA, Con A, LTA, UEA-I, MAA, and SNA). Several concentrations of each lectin were prepared by serial 2/3-fold dilutions of the most concentrated sample in running buffer supplemented with CaCl2 (5 mM) and MnCl2 (1 mM). Thus, concentrations varied from 66 nM to 2.5 µM for ECA; from 2.5 to 80 nM for Con A; from 31.25 nM to 1 µM for LTA and UEA-I; from 250 nM to 1.9 µM for MAA and from 74 to 563 nM for SNA. Analyses were performed at 20 µL/min and kinetic studies at 10 and 40 μL/min. After lectin injection, the sample solution was replaced by running buffer and the dissociation phase was monitored for 3–6 min.

MAA = experiment: SPR binding and kinetics of MAA on immobilized sialic acid glycoprobes; design: species or system Maackia amurensis
SNA = SNA (Sambucus nigra, UniProt Q41358)
[1] = biological target: the molecule itself; experiment: SPR; PDC-109 immobilised on a CM5 chip (1645 RU, 10 mM NaOAc pH 4); 50 µM PDC-109 passed over at 20 µL/min; regeneration with 1 M NaCl; two replicates

Chain of SNA (Q41358 309-570 limits assumed): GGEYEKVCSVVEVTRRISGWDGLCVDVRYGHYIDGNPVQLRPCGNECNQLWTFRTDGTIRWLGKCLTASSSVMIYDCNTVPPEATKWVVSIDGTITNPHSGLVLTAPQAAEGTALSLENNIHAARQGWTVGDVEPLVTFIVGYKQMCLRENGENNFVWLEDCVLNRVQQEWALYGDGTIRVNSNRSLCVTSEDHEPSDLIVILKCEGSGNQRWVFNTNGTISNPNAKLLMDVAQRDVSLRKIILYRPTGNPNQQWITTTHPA
Chain of SNA (Q41358 29-290 partner limits assumed): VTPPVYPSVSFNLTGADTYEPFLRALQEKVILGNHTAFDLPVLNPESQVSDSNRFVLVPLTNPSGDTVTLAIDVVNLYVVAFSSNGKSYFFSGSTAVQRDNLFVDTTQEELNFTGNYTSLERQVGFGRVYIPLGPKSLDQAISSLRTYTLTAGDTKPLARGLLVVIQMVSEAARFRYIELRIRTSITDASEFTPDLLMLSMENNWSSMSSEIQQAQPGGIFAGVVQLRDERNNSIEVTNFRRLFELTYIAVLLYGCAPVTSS

Molecule: Fuc-α1,3-GlcNAc-Aoa(m)-GFKKG [neo-glycoprobe: Fuc-α1,3-GlcNAc oxime-ligated to the peptide module N[Me]-O-Aoa-GFKKG]
- derived association (KA) constant (PDC-109): 237000 M⁻¹
- kd (PDC-109): 0.00165 s⁻¹
- ka (PDC-109): 763 M⁻¹ s⁻¹

Molecule: Fuc-α1,4-GlcNAc-Aoa(m)-GFKKG [neo-glycoprobe: Fuc-α1,4-GlcNAc oxime-ligated to the peptide module N[Me]-O-Aoa-GFKKG]
- kd (PDC-109): 8.83e-05 s⁻¹
- ka (PDC-109): 2910 M⁻¹ s⁻¹
- binding to PDC-109 in words (PDC-109): highest binding affinity

Molecule: Fuc-α1,6-GlcNAc-Aoa(m)-GFKKG [neo-glycoprobe: Fuc-α1,6-GlcNAc oxime-ligated to the peptide module N[Me]-O-Aoa-GFKKG]
- derived association (KA) constant (PDC-109): 73100 M⁻¹
- kd (PDC-109): 0.00345 s⁻¹
- ka (PDC-109): 645 M⁻¹ s⁻¹

Molecule: Gal-β1,3-GlcNAc-Aoa(m)-GFKKG [neo-glycoprobe: Gal-β1,3-GlcNAc oxime-ligated to the peptide module N[Me]-O-Aoa-GFKKG]
- derived association (KA) constant (PDC-109): 17000 M⁻¹
- kd (PDC-109): 0.00756 s⁻¹
- ka (PDC-109): 128 M⁻¹ s⁻¹

Molecule: Gal-β1,4-GlcNAc-Aoa(m)-GFKKG [neo-glycoprobe: Gal-β1,4-GlcNAc oxime-ligated to the peptide module N[Me]-O-Aoa-GFKKG]
- derived association (KA) constant (PDC-109): 10000 M⁻¹
- kd (PDC-109): 0.0086 s⁻¹
- ka (PDC-109): 86.2 M⁻¹ s⁻¹

Molecule: Gal-β1,6-GlcNAc-Aoa(m)-GFKKG [neo-glycoprobe: Gal-β1,6-GlcNAc oxime-ligated to the peptide module N[Me]-O-Aoa-GFKKG]
- derived association (KA) constant (PDC-109): 22700 M⁻¹
- kd (PDC-109): 0.0208 s⁻¹
- ka (PDC-109): 472 M⁻¹ s⁻¹

Molecule: Man-α1,2-Man-Aoa(m)-GFKKG [neo-glycoprobe: Man-α1,2-Man oxime-ligated to the peptide module N[Me]-O-Aoa-GFKKG]
- ka1 (Con A): 16800 M⁻¹ s⁻¹
- KA1 (Con A): 126000 M⁻¹
- kd1 (Con A): 0.133 s⁻¹
- ka2 (Con A): 2.88 × 10^−2 RU^−1 s^−1
- kd2 (Con A): 0.0706 s⁻¹
- derived association (KA) constant (PDC-109): 78700 M⁻¹
- kd (PDC-109): 0.013 s⁻¹
- ka (PDC-109): 1020 M⁻¹ s⁻¹

Molecule: Man-α1,3-Man-Aoa(m)-GFKKG [neo-glycoprobe: Man-α1,3-Man oxime-ligated to the peptide module N[Me]-O-Aoa-GFKKG]
- ka1 (Con A): 22800 M⁻¹ s⁻¹
- KA1 (Con A): 345000 M⁻¹
- kd1 (Con A): 0.0661 s⁻¹
- ka2 (Con A): 3.78 × 10^−3 RU^−1 s^−1
- kd2 (Con A): 0.0629 s⁻¹
- derived association (KA) constant (PDC-109): 87700 M⁻¹
- kd (PDC-109): 0.0044 s⁻¹
- ka (PDC-109): 386 M⁻¹ s⁻¹

Molecule: Man-α1,6-Man-Aoa(m)-GFKKG [neo-glycoprobe: Man-α1,6-Man oxime-ligated to the peptide module N[Me]-O-Aoa-GFKKG]
- ka1 (Con A): 8910 M⁻¹ s⁻¹
- KA1 (Con A): 308000 M⁻¹
- kd1 (Con A): 0.0289 s⁻¹
- ka2 (Con A): 7.15 × 10^−4 RU^−1 s^−1
- kd2 (Con A): 0.019 s⁻¹
- derived association (KA) constant (PDC-109): 23800 M⁻¹
- kd (PDC-109): 0.0173 s⁻¹
- ka (PDC-109): 410 M⁻¹ s⁻¹

Molecule: N[Me]-O-Aoa-GFKKG-amide [peptide module for oxime ligation]
- binding to PDC-109 in words (PDC-109): undesirable, non-specific binding

Molecule: Neu5Ac-α2,3-Gal-β1,4-GlcNAc-N[Me]-O-Aoa-GFKKG-amide [Neu5Ac-α2,3-Gal-β1,4-GlcNAc-Aoa(m)-GFKKG, neo-glycoprobe: Neu5Ac-α2,3-Gal-β1,4-GlcNAc oxime-ligated to the peptide module N[Me]-O-Aoa-GFKKG]
- carbohydrate specificity of MAA in words (MAA; SPR binding responses on sialic acid glycoprobe chip): recognized only
- ka (MAA; SPR, immobilized glycoprobe, MAA 250 nM to 1.9 μM, HBS-P pH 7.4 + CaCl2 5 mM, MnCl2 1 mM, 1:1 Langmuir model): 5.55 × 10^3 M^−^1 s^−^1
- KA (MAA; SPR, immobilized glycoprobe, MAA 250 nM to 1.9 μM, 1:1 Langmuir model): 9.12 × 10^5 M^−^1
- derived association (KA) constant (PDC-109): 12400 M⁻¹
- kd (PDC-109): 0.00477 s⁻¹
- ka (PDC-109): 99.9 M⁻¹ s⁻¹

Molecule: Neu5Ac-α2,3/6-Gal-β1,4-Glc-N[Me]-O-Aoa-GFKKG-amide [Neu5Ac-α2,3/6-Gal-β1,4-Glc-Aoa(m)-GFKKG, neo-glycoprobe: Neu5Ac-α2,3/6-Gal-β1,4-Glc oxime-ligated to the peptide module N[Me]-O-Aoa-GFKKG]
- derived association (KA) constant (PDC-109): 27700 M⁻¹
- kd (PDC-109): 0.0081 s⁻¹
- ka (PDC-109): 2120 M⁻¹ s⁻¹

Molecule: Neu5Ac-α2,6-Gal-β1,4-GlcNAc-N[Me]-O-Aoa-GFKKG-amide [Neu5Ac-α2,6-Gal-β1,4-GlcNAc-Aoa(m)-GFKKG]
- derived association (KA) constant (PDC-109): 166000 M⁻¹
- kd (PDC-109): 0.00253 s⁻¹
- ka (PDC-109): 1880 M⁻¹ s⁻¹
- binding to PDC-109 in words (PDC-109): favored interaction
- KA (SNA): 6.27 × 10^6 M^−^1
- carbohydrate specificity of SNA in words (SNA): marked preference
- ka (SNA; pH 7.4): 1.02 × 10^4 M^−^1 s^−^1

B1: PDC-109 (BSP-A1/-A2), main protein of bovine seminal plasma (natural protein, UniProt P02784 26-134, looked up)
chain: DQDEGVSTEPTQDGPAELPEDEECVFPFVYRNRKHFDCTVHGSLFPWCSLDADYVGRWKYCAQRDYAKCVFPFIYGGKKYETCTKIGSMWMSWCSLSPNYDKDRAWKYC
modifications: mixture of the glycosylated (O-linked trisaccharide, Neu5Ac-Hex-HexNAc) and non-glycosylated forms
notes: Native preparation; two closely spaced bands on SDS-PAGE (glycosylated and non-glycosylated forms); The same preparation was both immobilised and flowed over the chip; also called BSP-A2; source: purified from bull seminal plasma (donated by J.J. Calvete)
- binding result [1]: binds
